Results: patent US20250134842A1, “FATTY ACID MIMETICS AS MODULATORS OF NUCLEAR RECEPTOR TLX (NR2E1)” (Trustees of Dartmouth College, priority 2023, published 2025)

Target: nuclear receptor TLX (NR2E1) ligand-binding domain (Homo sapiens (Human), UniProt Q9Y466)
Assay: AlphaScreen assay detecting TLX-RIP140 NR box peptide interaction
Assay type: biochemical
Details: for EC50 / Efficacy (fold increase): his-tagged TLX LBD, biotinylated RIP140-L6 peptide recruitment; for Emax: read-out: Relative efficacy (%)
Description: In these experiments, compounds from Example 1 were evaluated in a biochemical assay to characterize ligand binding to TLX by detecting alterations in the ability of the TLX ligand binding domain to recruit an NR box peptide derived from the nuclear receptor-interacting protein 1 (NRIP1; receptor-interacting protein 140 (RIP140) transcriptional cofactor. RIP140 has been previously identified as a TLX interacting protein (Corso-Diaz X, et al. (2016) Co-activator candidate interactions for orphan nuclear receptor NR2E1. BMC Genomics 17:832).
AlphaScreen (Perkin Elmer, Shelton, CT) technology was used to detect the TLX-RIP140 NR box peptide interaction. The AlphaScreen assay was performed as previously described using other nuclear receptors including ROR, FXR, LXR, VDR and RXR (Bettoun D J, et al., (2003) Mol Endocrinol 17:2320-2328; Bramlett K S, et al., (2003) Journal of Pharmacology and Experimental Therapeutics 307:291-296; Houck K A, at al., (2004) Mol Genet Metab 83:184-187; Kumar N, et al., (2010) Mol Pharmacol 77:228-236; and Wang Y, et al., (2010) ACS Chemical Biology: 1029-1034. The present experiments used the N-terminal his-tagged ligand-binding domain (LBD) of TLX (NovAliX SAS, Strasbourg, France) and an N-terminal biotinylated RIP140-L6 peptide with a N-terminal KGG linker, namely ([…] (aa484-513)).

nuclear receptor TLX (NR2E1) ligand-binding domain, sequence (Q9Y466 155-383): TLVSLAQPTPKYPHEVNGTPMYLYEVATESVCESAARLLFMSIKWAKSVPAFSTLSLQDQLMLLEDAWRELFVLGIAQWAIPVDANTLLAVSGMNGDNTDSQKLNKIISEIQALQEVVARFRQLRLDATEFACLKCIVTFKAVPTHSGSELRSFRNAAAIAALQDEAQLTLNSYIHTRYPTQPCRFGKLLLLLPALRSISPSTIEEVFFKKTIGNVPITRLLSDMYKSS

Structure (SMILES)	EC50 [nM]	Efficacy (fold increase) [fold]	Emax (relative to oleic acid = 100.0) [%]	Relative efficacy (%) (relative to oleic acid = 100.0)
CCCCCCCCCC/C=C(/C)C/C(C)=C/[C@H](C)CC(=O)O [Compound 1-A]	2200	6.1	72.6	
CCCCCCCCCC/C=C(/C)C/C(C)=C/[C@@H](C)CC(=O)O [Compound 1-B]	2400	6.5	77.4	
CCCCCCCCC[C@@H](C)/C=C(/C)C/C(C)=C/[C@H](C)CC(=O)O [Compound 1-C]	3100	6.8	81	
CCCCCCCCC[C@@H](C)/C=C(/C)C/C(C)=C/[C@@H](C)CC(=O)O [Compound 1-D]	3200	7.1	84.5	
CCCCCCCCC[C@H](C)/C=C(/C)C/C(C)=C/[C@H](C)CC(=O)O [Compound 1-E]	1700	6.2	73.8	
CCCCCCCCC[C@H](C)/C=C(/C)C/C(C)=C/[C@@H](C)CC(=O)O [Compound 1-F]	1900	7.2	85.7	
CCCCCCCC/C=C(/C)C/C(C)=C/[C@H](C)CCCC(=O)O [Compound 2-A]	2500	6.6	78.6	
CCCCCCCC/C=C(/C)C/C(C)=C/[C@@H](C)CCCC(=O)O [Compound 2-B]	3100	6.6	78.6	
CCCCCCC[C@@H](C)/C=C(/C)C/C(C)=C/[C@H](C)CCCC(=O)O [Compound 2-C]	1500	6.6	78.6	
CCCCCCC[C@@H](C)/C=C(/C)C/C(C)=C/[C@@H](C)CCCC(=O)O [Compound 2-D]	1300	5.8	69	
CCCCCCC[C@H](C)/C=C(/C)C/C(C)=C/[C@H](C)CCCC(=O)O [Compound 2-E]	1300	5.8	69	
CCCCCCC[C@H](C)/C=C(/C)C/C(C)=C/[C@@H](C)CCCC(=O)O [Compound 2-F]	1600	6.1	72.6	
CCCCCC/C=C(/C)C/C(C)=C/[C@H](C)CCCCCC(=O)O [Compound 3-A]	1600	6.5	77.4	
CCCCCC/C=C(/C)C/C(C)=C/[C@@H](C)CCCCCC(=O)O [Compound 3-B]	900	6.6	78.6	
CCCCC[C@@H](C)/C=C(/C)C/C(C)=C/[C@H](C)CCCCCC(=O)O [Compound 3-C]	800	5.5	65.5	
CCCCC[C@@H](C)/C=C(/C)C/C(C)=C/[C@@H](C)CCCCCC(=O)O [Compound 3-D]	1200	6.1	72.6	
CCCCC[C@H](C)/C=C(/C)C/C(C)=C/[C@H](C)CCCCCC(=O)O [Compound 3-E]	1000	6.3	75	
CCCCC[C@H](C)/C=C(/C)C/C(C)=C/[C@@H](C)CCCCCC(=O)O [Compound 3-F]	900	6.0	71.4	
CCCC/C=C(/C)C/C(C)=C/[C@H](C)CCCCCCCC(=O)O [Compound 4-A]	1500	6.6	78.6	
CCCC/C=C(/C)C/C(C)=C/[C@@H](C)CCCCCCCC(=O)O [Compound 4-B]	3000	7.1	84.5	
CCC[C@@H](C)/C=C(/C)C/C(C)=C/[C@H](C)CCCCCCCC(=O)O [Compound 4-C]	1500	6.2	73.8	
CCC[C@@H](C)/C=C(/C)C/C(C)=C/[C@@H](C)CCCCCCCC(=O)O [Compound 4-D]	1600	6.2	73.8	
CCC[C@H](C)/C=C(/C)C/C(C)=C/[C@H](C)CCCCCCCC(=O)O [Compound 4-E]	1300	5.7	67.9	
CCC[C@H](C)/C=C(/C)C/C(C)=C/[C@@H](C)CCCCCCCC(=O)O [Compound 4-F]	1900	6.0	71.4	
CCCCCCCC/C=C\CCCCCCCC(=O)O [Oleic Acid, oleic acid, reference compound]	3600	8.4		100.0
